From patent US20110245249A1, “Heterocyclically Substituted Anilinopyrimidines” (Bayer CropScience AG, priority 2008, published 2011)

Experiment: logP by HPLC on reversed-phase columns (EEC Directive 79/831 Annex V.A8)
Assay type: physicochemical
Conditions: for log p [b]: pH 2.7; for log p [c]: pH 7.8; for log p [a]: pH 2.3
Experimental: The logP values were measured in accordance with EEC Directive 79/831 Annex V.A8 by HPLC (High Performance Liquid Chromatography) on reversed-phase columns (C 18) using the methods below:
[a] The determination was carried out in the acidic range at pH 2.3 using the mobile phases 0.1% aqueous phosphoric acid and acetronitrile linear gradient from 10% acetonitrile to 95% acetronitrile. [b] The LC-MS determination in the acid range was carried out at pH 2.7 using the mobile phases 0.1% aqueous formic acid and acetonitrile (contains 0.1% formic acid) linear gradient from 10% acetonitrile to 95% acetonitrile. [c] The LC-MS determination in the neutral range was carried out at pH 7.8 using the mobile phases 0.001 molar aqueous ammonium bicarbonate solution and acetonitrile linear gradient from 10% acetonitrile to 95% acetonitrile.

| Molecule | chromatographic logP (pH 2.7, logP (pH 2.7)) | log p [b] | log p [c] | further results |
| --- | --- | --- | --- | --- |
| 2-Chloro-{[5-chloro-4-(cyclopropylamino)pyrimidin-2-yl]amino}benzenecarbaldehyde | – | – | – | logP (pH 2.7) (pH 2.7, LC-MS, 0.1% aqueous formic acid/acetonitrile): 2.68 |
| CC(=O)c1cccc(Nc2ncc(C(F)(F)F)c(NC3CCC3)n2)c1 [1-(3-{[4-(Cyclobutylamino)-5-(trifluoromethyl)pyrimidin-2-yl]amino}phenyl)ethanone] | 3.24 | – | – | – |
| CC(=O)c1cccc(Nc2ncc(C(F)(F)F)c(NC3CC3)n2)c1 [1-(3-{[4-(Cyclopropylamino)-5-(trifluoromethyl)pyrimidin-2-yl]amino}phenyl)ethanone] | 2.72 | – | – | – |
| CC(=O)c1cccc(Nc2ncc(Cl)c(NC3CC3)n2)c1 [1-(3-{[5-Chloro-4-(cyclopropylamino)pyrimidin-2-yl]amino}phenyl)ethanone] | 1.75 | – | – | – |
| CCC(=O)c1cccc(Nc2ncc(Cl)c(NC3CC3)n2)c1 [1-(3-{[5-Chloro-4-(cyclopropylamino)pyrimidin-2-yl]amino}phenyl)propan-1-one] | 2.25 | – | – | – |
| CC(=O)c1ccc(Nc2ncc(Cl)c(NC3CC3)n2)cc1 [1-(4-{[5-Chloro-4-(cyclopropylamino)pyrimidin-2-yl]amino}phenyl)ethanone] | 1.93 | – | – | – |
| CC(=O)c1cccc(Nc2ncc(C(F)(F)F)c(NCC3CC3)n2)c1 [1-[3-({4-[(Cyclopropylmethyl)amino]-5-(trifluoromethyl)pyrimidin-2-yl}amino)phenyl]-ethanone] | 2.77 | – | – | – |
| CC1CC1Nc1nc(Nc2cccc(C=O)c2)ncc1Cl (centres unmarked) [3-((5-Chloro-4-[(2-methylcyclopropyl)amino]pyrimidin-2-yl)amino)benzaldehyde] | – | – | – | chromatographic logP (pH 2.3, logP (pH 2.3)): 2.11 |
| COCC(C)Nc1nc(Nc2cccc(C=O)c2)ncc1Cl (centres unmarked) [3-({5-Chloro-4-[(1-methoxypropan-2-yl)amino]pyrimidin-2-yl}amino)benzenecarbaldehyde] | 1.8 | – | – | – |
| O=Cc1cccc(Nc2ncc(Cl)c(NCC(F)(F)F)n2)c1 [3-({5-Chloro-4-[(2,2,2-trifluoroethyl)amino]pyrimidin-2-yl}amino)benzenecarbaldehyde] | 2.46 | – | – | – |
| O=Cc1cccc(Nc2ncc(Cl)c(NCC(F)F)n2)c1 [3-({5-Chloro-4-[(2,2-difluoroethyl)amino]pyrimidin-2-yl}amino)benzenecarbaldehyde] | 2.01 | – | – | – |
| O=Cc1cccc(Nc2ncc(Cl)c(NCC3CC3)n2)c1 [3-({5-Chloro-4-[(cyclopropylmethyl)amino]pyrimidin-2-yl}amino)benzenecarbaldehyde] | 1.94 | – | – | – |
| CN(c1nc(Nc2cccc(C=O)c2)ncc1Cl)C1CC1 [3-({5-Chloro-4-[cyclopropyl(methyl)amino]pyrimidin-2-yl}amino)benzenecarbaldehyde] | 2.84 | – | – | – |
| O=Cc1cccc(Nc2ncc(C(F)(F)F)c(NC3CCC3)n2)c1 [3-{[4-(Cyclobutylamino)-5-(trifluoromethyl)pyrimidin-2-yl]amino}benzenecarbaldehyde] | 3.26 | – | – | – |
| O=Cc1cccc(Nc2ncc(C(F)(F)F)c(NC3CC3)n2)c1 [3-{[4-(Cyclopropylamino)-5-(trifluoromethyl)pyrimidin-2-yl]amino}benzenecarbaldehyde] | 2.73 | – | – | – |
| O=Cc1cccc(Nc2ncc(F)c(NC3CC3)n2)c1 [3-{[4-(Cyclopropylamino)-5-fluoropyrimidin-2-yl]amino}benzenecarbaldehyde] | 1.26 | – | – | – |
| O=Cc1cccc(Nc2ncc(I)c(NC3CC3)n2)c1 [3-{[4-(Cyclopropylamino)-5-iodopyrimidin-2-yl]amino}benzenecarbaldehyde] | 1.96 | – | – | – |
| Cc1cnc(Nc2cccc(C=O)c2)nc1NC1CC1 [3-{[4-(Cyclopropylamino)-5-methylpyrimidin-2-yl]amino}benzenecarbaldehyde] | 1.13 | – | – | – |
| O=Cc1cccc(Nc2ncc(Br)c(NC3CCC3)n2)c1 [3-{[5-Bromo-4-(cyclobutylamino)pyrimidin-2-yl]amino}benzenecarbaldehyde] | 2.35 | – | – | – |
| O=Cc1cccc(Nc2ncc(Br)c(NC3CC3)n2)c1 [3-{[5-Bromo-4-(cyclopropylamino)pyrimidin-2-yl]amino}benzenecarbaldehyde] | 1.93 | – | – | – |
| O=Cc1cccc(Nc2ncc(Cl)c(NC3CCC3)n2)c1 [3-{[5-Chloro-4-(cyclobutylamino)pyrimidin-2-yl]amino}benzenecarbaldehyde] | 2.16 | – | – | – |
| O=Cc1cccc(Nc2ncc(Cl)c(NC3CC3)n2)c1 [3-{[5-Chloro-4-(cyclopropylamino)pyrimidin-2-yl]amino}benzenecarbaldehyde] | 1.82 | – | – | – |
| CC(C)Nc1nc(Nc2cccc(C=O)c2)ncc1Cl [3-{[5-Chloro-4-(isopropylamino)pyrimidin-2-yl]amino}benzaldehyde] | 1.86 | – | – | – |
| C#CCNc1nc(Nc2cccc(C=O)c2)ncc1Cl [3-{[5-Chloro-4-(prop-2-yn-1-ylamino)pyrimidin-2-yl]amino}benzenecarbaldehyde] | 1.74 | – | – | – |
| CC1(C)COC(c2cccc(Nc3ncc(Cl)c(NC4CC4)n3)c2)OC1 [Example 2] | – | 2.45[b] | – | – |

| Molecule | chromatographic logP (pH 2.7, logP (pH 2.7)) | log p [b] | log p [c] | further results |
| --- | --- | --- | --- | --- |
| CC1OC(c2cccc(Nc3ncc(Cl)c(NC4CC4)n3)c2)OC1C (centres unmarked) [Example 3] | – | 2.2[b] | – | – |
| SCCOC(OCCS)c1cccc(Nc2ncc(Cl)c(NC3CC3)n2)c1 [Example 4] | – | 1.36 | 2.03 | – |
| CCC1COC(c2cccc(Nc3ncc(Cl)c(NC4CC4)n3)c2)O1 (centres unmarked) [Example 7] | – | 2.29 | 3.48 | – |
| CC1COC(c2cccc(Nc3ncc(Cl)c(NC4CC4)n3)c2)O1 (centres unmarked) [Example 8] | – | 1.9[b] | – | – |
| CC1CC(C)OC(c2cccc(Nc3ncc(Cl)c(NC4CC4)n3)c2)O1 (centres unmarked) [Example 9] | – | 2.26 | 3.51 | – |
| CC1(c2cccc(Nc3ncc(C(F)(F)F)c(NCC4CC4)n3)c2)OCCO1 [Example 10] | – | 3.15[b] | 3.79 | log p [a]: 3.16 |
| CC1(c2cccc(Nc3ncc(C(F)(F)F)c(NC4CC4)n3)c2)OCCO1 [Example 11] | – | 3.03 | 3.46 | – |
| Brc1cnc(Nc2cccc(C3OCCO3)c2)nc1NC1CC1 [Example 13] | – | 1.75 | 2.82 | – |
| Brc1cnc(Nc2cccc(C3OCCCO3)c2)nc1NC1CC1 [Example 15] | – | – | 2.97 | – |
| CC1OC(c2cccc(Nc3ncc(Br)c(NC4CCC4)n3)c2)OC1C (centres unmarked) [Example 17] | – | 2.67 | 4.12 | – |
| Clc1cnc(Nc2cccc(C3OCCO3)c2)nc1NCC1CC1 [Example 18] | – | 1.73 | 3.06 | – |
| CC1(C)COC(c2cccc(Nc3ncc(Cl)c(NC4CCC4)n3)c2)OC1 [Example 19] | – | 2.57[b] | 4.13 | log p [a]: 2.29 |
| Brc1cnc(Nc2cccc(C3OCCO3)c2)nc1NC1CCC1 [Example 20] | – | 2.05 | 3.39 | – |
| CC1(C)COC(c2cccc(Nc3ncc(Br)c(NC4CCC4)n3)c2)OC1 [Example 21] | – | 3 | 4.51 | – |
| CC1(C)COC(c2cccc(Nc3ncc(C(F)(F)F)c(NC4CC4)n3)c2)OC1 [Example 25] | – | 3.7 | 4.07 | – |
| CC1(C)COC(c2cccc(Nc3ncc(C(F)(F)F)c(NC4CCC4)n3)c2)OC1 [Example 26] | – | 4.22 | 4.62 | – |
| Clc1cnc(Nc2cccc(C3OCC(c4ccccc4)O3)c2)nc1NC1CC1 (centres unmarked) [Example 29] | – | – | 3.93[c] | – |
| Clc1cnc(Nc2cccc(C3OCCO3)c2)nc1NC1CCC1 [Example 31] | – | 1.91 | 3.23 | – |
| Clc1cnc(Nc2cccc(C3OC4COCC4O3)c2)nc1NC1CC1 (centres unmarked) [Example 32] | – | 1.55[b] | – | – |
| ClCC1COC(c2cccc(Nc3ncc(Cl)c(NC4CC4)n3)c2)O1 (centres unmarked) [Example 33] | – | 2.19 | – | log p [a]: 1.85 |
| C=CCOCC1COC(c2cccc(Nc3ncc(Cl)c(NC4CC4)n3)c2)O1 (centres unmarked) [Example 34] | – | 2.25 | 3.39 | – |
| Clc1cnc(Nc2cccc(C3SCCCS3)c2)nc1NC1CC1 [Example 35, 5-Chloro-N^4-cyclopropyl-N^2-[3-(1,3-dithian-2-yl)phenyl]pyrimidine-2,4-diamine] | 2.44 | – | – | chromatographic logP (pH 2.7, log p [b]): 2.44; chromatographic logP (pH 7.8, log p [c]): 3.65 |
| COc1ccc(OCC2COC(c3cccc(Nc4ncc(Cl)c(NC5CC5)n4)c3)O2)cc1 (centres unmarked) [Example 36] | – | 2.64 | 3.78 | – |
| O=[N+]([O-])c1ccccc1C1COC(c2cccc(Nc3ncc(Cl)c(NC4CC4)n3)c2)O1 (centres unmarked) [Example 37] | – | 2.89 | 4 | – |
